Reference: patent US9193722B2, “Tri-cyclic pyrazolopyridine kinase inhibitors” (Vertex Pharmaceuticals Incorporated, priority 2008, dated 2015)

Experiments:
Format in all cases: biochemical
PKC delta kinase = PKC delta kinase (Homo sapiens, UniProt Q05655); test: PKC delta kinase inhibition, coupled-enzyme (NADH absorbance) assay, Ki; details: 150 μM ATP, 46 nM PKC delta kinase, 30° C.; read-out: Ki PKC delta
Method in brief: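 Enzyme and compound pre-equilibrated 10 min at 30° C before adding ATP to 150 μM final. Buffer: HEPES pH 7.5 (100 mM), 10 mM MgCl2, 25 mM NaCl, 0.1 mM EDTA, 0.01% Brij.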

PKC theta kinase = PKC theta kinase (Homo sapiens, UniProt Q04759); test: PKC theta kinase inhibition, coupled-enzyme (NADH absorbance) assay, Ki; details: 240 μM ATP, 18 nM PKC theta kinase, 30° C.
Method in brief: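 Enzyme and compound equilibrated 10 min at 30 °C before reaction in HEPES pH 7.5 buffer with MgCl2, NaCl, EDTA and Brij. Activity tracked as NADH loss at 340 nm through a coupled system. Initial-rate data fitted by non-linear regression to give Ki.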

PKC alpha kinase = PKC alpha kinase (Homo sapiens, UniProt P17252); test: PKC alpha kinase inhibition, coupled-enzyme (NADH absorbance) assay, Ki; details: 130 μM ATP, 4.5 nM PKC alpha kinase, 30° C.
Method in brief: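 Ki derived by non-linear regression of initial rates from a coupled assay tracking NADH absorbance at 340 nm over 15 min at 30 °C. ATP was 130 μM final after a 10 min compound–enzyme preincubation in HEPES pH 7.5 buffer with MgCl2, CaCl2, NaCl, EDTA and Brij.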

Sequence of PKC delta kinase (Q05655 whole entry): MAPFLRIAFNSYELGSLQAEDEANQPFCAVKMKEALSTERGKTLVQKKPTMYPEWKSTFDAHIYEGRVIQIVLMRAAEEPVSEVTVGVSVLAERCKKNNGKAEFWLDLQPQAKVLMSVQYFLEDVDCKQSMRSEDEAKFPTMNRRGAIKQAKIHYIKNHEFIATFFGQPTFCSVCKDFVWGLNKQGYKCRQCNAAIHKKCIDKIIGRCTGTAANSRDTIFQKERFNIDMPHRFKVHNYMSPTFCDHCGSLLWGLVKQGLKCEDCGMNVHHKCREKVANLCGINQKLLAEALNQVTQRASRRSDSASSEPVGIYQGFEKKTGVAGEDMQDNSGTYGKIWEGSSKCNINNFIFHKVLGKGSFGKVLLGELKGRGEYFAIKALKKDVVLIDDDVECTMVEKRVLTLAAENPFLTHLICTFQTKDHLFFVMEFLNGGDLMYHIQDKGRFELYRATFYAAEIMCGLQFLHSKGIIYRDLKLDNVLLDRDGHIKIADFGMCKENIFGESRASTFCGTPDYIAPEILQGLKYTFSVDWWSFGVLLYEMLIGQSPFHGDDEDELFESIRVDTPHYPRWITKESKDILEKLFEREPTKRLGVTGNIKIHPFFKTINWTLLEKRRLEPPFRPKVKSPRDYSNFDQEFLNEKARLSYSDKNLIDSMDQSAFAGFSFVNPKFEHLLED
Sequence of PKC theta kinase (Q04759 whole entry): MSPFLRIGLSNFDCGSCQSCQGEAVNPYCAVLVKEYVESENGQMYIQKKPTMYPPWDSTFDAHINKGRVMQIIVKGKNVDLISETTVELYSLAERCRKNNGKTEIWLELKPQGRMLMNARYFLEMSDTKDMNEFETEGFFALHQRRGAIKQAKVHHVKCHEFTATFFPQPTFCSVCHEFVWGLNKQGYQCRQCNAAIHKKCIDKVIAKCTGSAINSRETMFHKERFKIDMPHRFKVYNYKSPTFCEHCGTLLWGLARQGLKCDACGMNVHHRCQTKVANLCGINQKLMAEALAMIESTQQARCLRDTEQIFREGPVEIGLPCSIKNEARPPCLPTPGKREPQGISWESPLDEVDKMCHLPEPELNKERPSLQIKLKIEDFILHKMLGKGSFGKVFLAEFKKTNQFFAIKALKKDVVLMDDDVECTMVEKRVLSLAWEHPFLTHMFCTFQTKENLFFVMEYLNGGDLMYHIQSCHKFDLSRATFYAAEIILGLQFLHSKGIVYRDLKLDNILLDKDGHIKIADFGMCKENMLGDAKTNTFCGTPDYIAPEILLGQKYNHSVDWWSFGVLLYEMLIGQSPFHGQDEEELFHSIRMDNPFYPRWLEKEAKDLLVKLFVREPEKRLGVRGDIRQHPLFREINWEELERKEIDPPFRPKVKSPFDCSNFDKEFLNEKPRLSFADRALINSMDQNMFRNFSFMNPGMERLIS

| SMILES | Ki (PKC delta kinase) | Ki (PKC theta kinase) | Ki (PKC alpha kinase) |
| --- | --- | --- | --- |
| Fc1ccc(C2CN(c3ccc(C(F)(F)F)c(-c4n[nH]c5ncccc45)n3)CCN2)cc1 (stereo not drawn) [Compound 171] | > 1250 nM | < 500 nM | > 1250 nM |
| FC(F)(F)c1ccc(N2CCNC(c3ccc(Cl)cc3)C2)nc1-c1n[nH]c2ncccc12 (stereo not drawn) [Compound 173] | > 1250 nM | > 700 nM | > 1250 nM |
| CC(C)C[C@H]1CN(c2ccc(F)c(-c3n[nH]c4ncccc34)n2)C[C@H](C)N1 [Compound 182] | > 1250 nM | > 700 nM | > 1250 nM |
| CC(C)C[C@H]1CN(c2ccc(F)c(-c3n[nH]c4ncccc34)n2)C[C@@H](C)N1 [Compound 183] | < 500 nM | < 50 nM | < 2800 nM |
| CC(C)C[C@@H]1CN(c2ccc(C(F)(F)F)c(-c3n[nH]c4ncccc34)n2)CCN1 [Compound 193] | > 1250 nM | < 500 nM | > 1250 nM |
| CC(C)C[C@@]1(O)CN(c2ccc(C(F)(F)F)c(-c3n[nH]c4ncccc34)n2)CC[C@H]1N [Compound 195] | < 500 nM | < 50 nM | < 500 nM |
| CC(C)C[C@@]1(F)CN(c2ccc(C(F)(F)F)c(-c3n[nH]c4ncccc34)n2)CC[C@H]1O [Compound 198] | > 1250 nM | < 500 nM | > 1250 nM |
| CC(C)C[C@H]1CN(c2ccc(C(F)(F)F)c(-c3n[nH]c4ncccc34)n2)C[C@H](C)N1 [Compound 202] | > 1250 nM | > 700 nM | > 1250 nM |
| CC(C)C[C@H]1CN(c2ccc(C(F)(F)F)c(-c3n[nH]c4ncccc34)n2)C[C@@H](C)N1 [Compound 203] | < 500 nM | < 50 nM | < 500 nM |
| CC(C)C(O)(C1CN(c2ccc(F)c(-c3n[nH]c4ncccc34)n2)CCN1)C(F)(F)F (stereo not drawn) [Compound 207] | < 2800 nM | < 50 nM | > 1250 nM |
| CN(C)C(=O)CC1CN(c2ccc(C(F)(F)F)c(-c3n[nH]c4ncccc34)n2)CCN1 (stereo not drawn) [Compound 211] | > 1250 nM | > 700 nM | > 1250 nM |
| CCNC(=O)CC1CN(c2ccc(C(F)(F)F)c(-c3n[nH]c4ncccc34)n2)CCN1 (stereo not drawn) [Compound 212] | > 1250 nM | > 700 nM | > 1250 nM |
| CNC(=O)C1CN(c2ccc(C(F)(F)F)c(-c3n[nH]c4ncccc34)n2)CCN1 (stereo not drawn) [Compound 214] | > 1250 nM | > 700 nM | > 1250 nM |
| CN(C)C(=O)C1CN(c2ccc(C(F)(F)F)c(-c3n[nH]c4ncccc34)n2)CCN1 (stereo not drawn) [Compound 215] | > 1250 nM | > 700 nM | > 1250 nM |
| CCNC(=O)C1CN(c2ccc(C(F)(F)F)c(-c3n[nH]c4ncccc34)n2)CCN1 (stereo not drawn) [Compound 216] | > 1250 nM | > 700 nM | > 1250 nM |
| CC(C)CC1CN(c2ccc(C(F)(F)F)c(-c3n[nH]c4ncccc34)n2)CC(CF)N1 (stereo not drawn) [Compound 217] | > 1250 nM | > 700 nM | > 1250 nM |
| CC(C)C[C@]1(O)CN(c2ccc(C(F)(F)F)c(-c3n[nH]c4ncccc34)n2)CC[C@H]1N [Compound 218] | < 500 nM | < 50 nM | < 500 nM |
| CC(C)C[C@]1(O)CN(c2ccc(C(F)(F)F)c(-c3n[nH]c4ncccc34)n2)CC[C@@H]1N [Compound 219] | < 500 nM | < 500 nM | < 2800 nM |
| COC(C)C1CN(c2ccc(C(F)(F)F)c(-c3n[nH]c4ncccc34)n2)CCN1 (stereo not drawn) [Compound 221] | > 1250 nM | < 500 nM | > 1250 nM |
| CC(C)C[C@H]1CN(c2ccc(C(F)(F)F)c(-c3n[nH]c4ncccc34)n2)CC(F)(F)CN1 [Compound 222] | > 1250 nM | > 700 nM | > 1250 nM |
| CCC[C@H]1CN(c2ccc(C(F)(F)F)c(-c3n[nH]c4ncccc34)n2)CC(F)(F)CN1 [Compound 223] | > 1250 nM | > 700 nM | > 1250 nM |

Now from value to molecule:

| Ki (PKC delta kinase) | Ki (PKC theta kinase) | Ki (PKC alpha kinase) | SMILES |
| --- | --- | --- | --- |
| > 1250 nM | < 500 nM | > 1250 nM | CC(C)C(F)(F)C1CN(c2ccc(F)c(-c3n[nH]c4ncccc34)n2)CCN1 (stereo not drawn) [Compound 167] |
| < 50 nM | < 50 nM | < 500 nM | CC(C)C[C@@H]1CN(c2cccc(-c3n[nH]c4ncccc34)n2)CC[C@@H]1N [Compound 169] |
| < 2800 nM | < 50 nM | < 500 nM | FC(F)(F)c1ccc(N2CCNC(c3cccc(Cl)c3)C2)nc1-c1n[nH]c2ncccc12 (stereo not drawn) [Compound 170] |
| > 1250 nM | < 500 nM | < 2800 nM | FC(F)(F)c1ccc(N2CCNC(c3cccc(Br)c3)C2)nc1-c1n[nH]c2ncccc12 (stereo not drawn) [Compound 172] |
| < 50 nM | < 50 nM | > 1250 nM | CC(C)(O)[C@@H]1CN(c2cccc(-c3n[nH]c4ncccc34)n2)CCN1 [Compound 176] |
| < 50 nM | < 1 nM | < 2800 nM | CC(C)C(C)(O)C1CN(c2cccc(-c3n[nH]c4ncccc34)n2)CCN1 (stereo not drawn) [Compound 177] |
| < 500 nM | < 50 nM | > 1250 nM | COC(C)(C)C1CN(c2cccc(-c3n[nH]c4ncccc34)n2)CCN1 (stereo not drawn) [Compound 181] |
| < 500 nM | < 50 nM | > 1250 nM | COC[C@H]1CN(c2cccc(-c3n[nH]c4ncccc34)n2)CCN1 [Compound 184] |
| < 50 nM | < 50 nM | < 2800 nM | OC1(C2CN(c3cccc(-c4n[nH]c5ncccc45)n3)CCN2)CC1 (stereo not drawn) [Compound 186] |
| < 50 nM | < 50 nM | < 500 nM | c1cc(-c2n[nH]c3ncccc23)nc(N2CCNC3(CCC3)C2)c1 [Compound 187] |
| < 500 nM | < 50 nM | < 2800 nM | Fc1ccc(N2CCNC3(CCC3)C2)nc1-c1n[nH]c2ncccc12 [Compound 188] |
| < 50 nM | < 50 nM | < 500 nM | CC(C)CC1(C)CN(c2cccc(-c3n[nH]c4ncccc34)n2)CCC1N (stereo not drawn) [Compound 189] |
| > 1250 nM | < 500 nM | > 1250 nM | COC(C)(C)C1CN(c2ccc(F)c(-c3n[nH]c4ncccc34)n2)CCN1 (stereo not drawn) [Compound 190] |
| > 1250 nM | < 500 nM | > 1250 nM | FC(F)(F)c1ccnc2[nH]nc(-c3cccc(N4CCNCC4)n3)c12 [Compound 191] |
| > 1250 nM | > 700 nM | > 1250 nM | O=C1CN(c2ccc(C(F)(F)F)c(-c3n[nH]c4ncccc34)n2)CCN1 [Compound 194] |
| > 1250 nM | < 500 nM | > 1250 nM | CC(C)CC1(O)CNCCN(c2ccc(F)c(-c3n[nH]c4ncccc34)n2)C1 (stereo not drawn) [Compound 196] |
| < 500 nM | < 50 nM | > 1250 nM | CC(C)(C)C1CN(c2ccc(F)c(-c3n[nH]c4ncccc34)n2)CCN1 (stereo not drawn) [Compound 197] |
| > 1250 nM | < 500 nM | > 1250 nM | CC(C)C[C@@]1(F)CN(c2ccc(F)c(-c3n[nH]c4ncccc34)n2)CC[C@H]1O [Compound 199] |
| < 2800 nM | < 50 nM | > 1250 nM | Fc1ccc(N2CCNC(CC(F)(F)F)C2)nc1-c1n[nH]c2ncccc12 (stereo not drawn) [Compound 206] |
| > 1250 nM | < 500 nM | > 1250 nM | NC(=O)CC1CN(c2ccc(C(F)(F)F)c(-c3n[nH]c4ncccc34)n2)CCN1 (stereo not drawn) [Compound 209] |
| > 1250 nM | < 500 nM | > 1250 nM | CNC(=O)CC1CN(c2ccc(C(F)(F)F)c(-c3n[nH]c4ncccc34)n2)CCN1 (stereo not drawn) [Compound 210] |
| > 1250 nM | > 700 nM | > 1250 nM | NC(=O)C1CN(c2ccc(C(F)(F)F)c(-c3n[nH]c4ncccc34)n2)CCN1 (stereo not drawn) [Compound 213] |
| < 500 nM | < 50 nM | < 2800 nM | Fc1ccc(N2CCNC(C3CC3)C2)nc1-c1n[nH]c2ncccc12 (stereo not drawn) [Compound 220] |
| > 1250 nM | < 500 nM | > 1250 nM | CC(C)C[C@H]1CN(c2ccc(C(F)(F)F)c(-c3n[nH]c4ncccc34)n2)CCCN1 [Compound 224] |
| > 1250 nM | < 500 nM | > 1250 nM | CC(C)C[C@H]1CN(c2cccc(-c3n[nH]c4ncccc34)n2)CC(F)(F)CN1 [Compound 225] |
| > 1250 nM | < 500 nM | > 1250 nM | CN1CCN(c2ccc(F)c(-c3n[nH]c4ncccc34)n2)CC1 [Compound 226, 3-(3-fluoro-6-(4-methylpiperazin-1-yl)pyridin-2-yl)-1H-pyrazolo[3,4-b]pyridine] |
| > 1250 nM | < 500 nM | > 1250 nM | CCC[C@H]1CN(c2cccc(-c3n[nH]c4ncccc34)n2)CC(F)(F)CN1 [Compound 227] |
| < 500 nM | < 50 nM | < 500 nM | CCC[C@H]1CN(c2cccc(-c3n[nH]c4ncccc34)n2)CCCN1 [Compound 228] |
| > 1250 nM | < 50 nM | > 1250 nM | OC1(C2CN(c3ccc(F)c(-c4n[nH]c5ncccc45)n3)CCN2)COC1 (stereo not drawn) [Compound 230] |
| > 1250 nM | > 700 nM | > 1250 nM | OC1(C2CN(c3cccc(-c4n[nH]c5ncccc45)n3)CCN2)COC1 (stereo not drawn) [Compound 232] |
